# Where two headings read alike, the source gives them in different places.
# Legend:
# [1] = Kinetic solubility in bio-relevant buffers (FaSSIF, FeSSIF, SGF); assay type: physicochemical; conditions: 37° C.
# [2] = Pharmacokinetic testing of salt forms, oral dosing in rats (Example 5); assay type: in vivo; conditions: fasted male Sprague-Dawley rats, mean values
# [3] = pH solubility in pH 2, 4, 6, 8 and 10 buffers; assay type: physicochemical; conditions: 37° C.; for Form change (FC) of residual solid, pH 4.0: pH 4.0 buffer; for Form change (FC) of residual solid, pH 6.0: pH 6.0 buffer; for Form change (FC) of residual solid, pH 8.0: pH 8.0 buffer; for Form change (FC) of residual solid, pH 10.0: pH 10.0 buffer
# [4] = Solid state stability at 40° C./75% RH for 3 weeks (HPLC purity, form change); assay type: physicochemical; conditions: for chemical stability (HPLC purity change, in words): 3 weeks at 40° C. and 75% relative humidity; for Form Change at 3 weeks / HPLC Purity at 3 weeks: 3 weeks under 40° C./75% RH; for Initial HPLC Purity: before storage
# Description: Agilent 1260 HPLC was utilized and detailed chromatographic conditions for purity and solubility measurement are listed in Table 15 below.
# The table below summarizes the characterization and solid state stability results observed for FB and Forms A, B, and D. Samples were prepared and data was obtained according to the procedures and processes listed above unless otherwise specified. More procedures, processes, and results are listed below in Table 16.
# [5] = Dynamic Vapor Sorption (DVS), hygroscopicity/water uptake; assay type: physicochemical; conditions: for Hygroscopicity: DVS up to 80% RH at 25° C.; for water uptake at 80% RH: DVS; for water uptake at 80% RH / Form change (FC) after DVS: 25° C.; for Form change (FC) after DVS: at the end of the DVS test, up to 80% RH
# Description: The Dynamic Vapour Sorption studies were performed using a Surface Measurement Systems Ltd. DVS-1 No Video, equipment #2126. The sample is loaded into balance pan, typically 20-30 mg, and equilibrated at 0% RH. […] After completion of the sorption cycle, the sample was dried using the same method. The software used for data collection is DVSWin v3.01 No Video. Data analysis is performed using DVS Standard Analysis Suite v6.3.0 (Standard).
# [6] = Moisture sorption isotherm of crystalline forms; assay type: physicochemical; conditions: for crystal form by XRPD after the moisture absorption/desorption cycle: XRPD before and after moisture sorption isotherm
# [7] = Stability studies of crystalline forms (Table 17, stability by HPLC); assay type: physicochemical; conditions: for Stability by HPLC (in words): stability studies of Table 17; for Stability Results, 40° C.: stored at 40° C.; for Stability Results, 40° C./75% RH: stored at 40° C./75% RH; for Stability Results, 60° C.: stored at 60° C.; for Stability Results, 60° C./75% RH: stored at 60° C./75% RH
# [8] = Salt screening, stability of salt forms; assay type: physicochemical; conditions: salt screening of Compound 1
# Description: The salt screen was performed using the Crystal16 equipment.
# [9] = dose mg/kg: Compound 1 18.2, Phosphate 14.3, Tartrate 18.7, Malate 18.6, Succinate 18.7, Benzenesulfonate 17.6
smiles,measurement,setting,value
"CN1CCN(Cc2ccc(Nc3ncc(Cl)c(Nc4ccccc4S(=O)(=O)N(C)C)n3)cc2)CC1 [Compound 1, 2-((5-chloro-2-((4-((4-methylpiperazin-1-yl)methyl)phenyl)amino)pyrimidin-4-yl)amino)-N,N-dimethylbenzenesulfonamide]","Form change (FC) of residual solid, FaSSIF","[1]; FaSSIF, 24 hours",No
same,"Form change (FC) of residual solid, FeSSIF","[1]; FeSSIF, 24 hours",No
same,"Form change (FC) of residual solid, SGF","[1]; SGF, 24 hours",No
same,bioavailability,"[2]; rat, plasma, 18.2 mg/kg, dose mg/kg: Compound 1 18.2, Phosphate 14.3, Tartrate 18.7, Malate 18.6, Succinate 18.7, Benzenesulfonate 17.6",26.9%
same,AUC(0-t),"[2]; rat, plasma, 18.2 mg/kg, dose mg/kg: Compound 1 18.2, Phosphate 14.3, Tartrate 18.7, Malate 18.6, Succinate 18.7, Benzenesulfonate 17.6, read-out: AUC0-24 hours",458 ng·h/mL
same,Cmax,"[2]; rat, plasma, 18.2 mg/kg, dose mg/kg: Compound 1 18.2, Phosphate 14.3, Tartrate 18.7, Malate 18.6, Succinate 18.7, Benzenesulfonate 17.6, read-out: Cmax",116 ng/mL
same,Tmax,"[2]; rat, plasma, 18.2 mg/kg, dose mg/kg: Compound 1 18.2, Phosphate 14.3, Tartrate 18.7, Malate 18.6, Succinate 18.7, Benzenesulfonate 17.6, read-out: Tmax",50 min
same,"Form change (FC) of residual solid, pH 2.0","[3]; pH 2.0 buffer, 24 hours",Yes
same,"Form change (FC) of residual solid, pH 4.0",[3]; 24 hours,Yes
same,"Form change (FC) of residual solid, pH 6.0",[3]; 24 hours,No
same,"Form change (FC) of residual solid, pH 8.0",[3]; 24 hours,No
same,"Form change (FC) of residual solid, pH 10.0",[3]; 24 hours,No
same,"chemical stability (HPLC purity change, in words)",[4],no significant HPLC purity decrease
same,Form Change at 3 weeks,[4],No
same,HPLC Purity at 3 weeks,[4],98.6 area %
same,Initial HPLC Purity,[4],98.3 area %
same,Hygroscopicity,[5]; listed as Free Base,Non-hygroscopic/
same,Hygroscopicity,[5]; listed as free base,non-hygroscopic
same,water uptake at 80% RH,[5]; listed as Free Base,0.07%
same,water uptake at 80% RH,[5]; listed as free base,less than 0.2%
same,Form change (FC) after DVS,[5]; listed as Free Base,No
same,Form change (FC) after DVS,[5]; listed as free base,no form change
"CN1CCN(Cc2ccc(Nc3ncc(Cl)c(Nc4ccccc4S(=O)(=O)N(C)C)n3)cc2)CC1.O=C(O)C(O)C(O)C(=O)O.O=C(O)C(O)C(O)C(=O)O [Form A, 2-((5-chloro-2-((4-((4-methylpiperazin-1-yl)methyl)phenyl)amino)pyrimidin-4-yl)amino)-N,N-dimethylbenzenesulfonamide di-tartrate salt]",pH solubility compared between polymorphs (in words),"[3]; pH 2, 4 and 6 buffers",higher solubility than other polymorphs
same,"Form change (FC) of residual solid, pH 4.0",[3]; 24 hours,Yes
same,"Form change (FC) of residual solid, pH 6.0",[3]; 24 hours,Yes
same,"Form change (FC) of residual solid, pH 8.0",[3]; 24 hours,Yes
same,"Form change (FC) of residual solid, pH 10.0",[3]; 24 hours,Yes
same,"chemical stability (HPLC purity change, in words)",[4],no significant HPLC purity decrease
same,Form Change at 3 weeks,[4],No
same,HPLC Purity at 3 weeks,[4],99.7 area %
same,Initial HPLC Purity,[4],99.6 area %
same,Moisture sorption isotherm (in words),[6],hygroscopic
same,crystal form by XRPD after the moisture absorption/desorption cycle,[6],maintained
same,"Stability Results, Initial",[7],99.3%
same,Stability by HPLC (in words),[7]; di-tartrate salt,No significant changes
same,Stability by HPLC (in words),"[7]; listed as A, di-tartrate salt",Stable
same,"Stability Results, 40° C.",[7],99.3%
same,"Stability Results, 40° C./75% RH",[7],99.3%
same,"Stability Results, 60° C.",[7],99.3%
same,"Stability Results, 60° C./75% RH",[7],99.3%
same,water uptake at 80% RH,[5]; di-tartrate salt,4.6%
same,Form change (FC) after DVS,[5],No
"CN1CCN(Cc2ccc(Nc3ncc(Cl)c(Nc4ccccc4S(=O)(=O)N(C)C)n3)cc2)CC1.O=C(O)C(O)C(O)C(=O)O [Form D, 2-((5-chloro-2-((4-((4-methylpiperazin-1-yl)methyl)phenyl)amino)pyrimidin-4-yl)amino)-N,N-dimethylbenzenesulfonamide mono-tartrate salt]",Kinetic solubility in FaSSIF compared between forms (in words),[1]; FaSSIF,lower solubility than other Forms A and B
same,"Form change (FC) of residual solid, FaSSIF","[1]; FaSSIF, 24 hours",Yes
same,"Form change (FC) of residual solid, pH 4.0",[3]; 24 hours,Yes
same,"Form change (FC) of residual solid, pH 6.0",[3]; 24 hours,Yes
same,"Form change (FC) of residual solid, pH 8.0",[3]; 24 hours,Yes
same,"Form change (FC) of residual solid, pH 10.0",[3]; 24 hours,Yes
same,"chemical stability (HPLC purity change, in words)",[4],no significant HPLC purity decrease
same,Form Change at 3 weeks,[4],No
same,HPLC Purity at 3 weeks,[4],98.3 area %
same,Initial HPLC Purity,[4],98.8 area %
same,Moisture sorption isotherm (in words),[6],hygroscopic
same,crystal form by XRPD after the moisture absorption/desorption cycle,[6],transformed to the other forms
same,"Stability Results, Initial",[7],98.4%
same,Stability by HPLC (in words),"[7]; listed as D, mono-tartrate salt",Stable
same,Stability by HPLC (in words),[7]; mono-tartrate salt,No significant changes
same,"Stability Results, 40° C.",[7],98.2%
same,"Stability Results, 40° C./75% RH",[7],98.4%
same,"Stability Results, 60° C.",[7],98.2%
same,"Stability Results, 60° C./75% RH",[7],98.2%
same,water uptake at 80% RH,[5]; mono-tartrate salt,5.2%
same,Form change (FC) after DVS,[5]; mono-tartrate salt,form change observed and Yes
CN1CCN(Cc2ccc(Nc3ncc(Cl)c(Nc4ccccc4S(=O)(=O)N(C)C)n3)cc2)CC1.O=C(O)C[C@H](O)C(=O)O [Malate Salt],AUC0-24 hours,[2]; [9],515 ng·h/mL
same,Cmax,[2]; [9],134 ng/mL
same,Tmax,[2]; [9],30 min
CN1CCN(Cc2ccc(Nc3ncc(Cl)c(Nc4ccccc4S(=O)(=O)N(C)C)n3)cc2)CC1.O=P(O)(O)O [Phosphate Salt],stability of the salt form (in words),[8],undesirable stability characteristics

# From patent publication US20220380348A1, “AXL INHIBITOR FORMULATIONS” (Sumitomo Dainippon Pharma Oncology, Inc., priority 2019, published 2022)
